Results taken from the NIST ThermoML archive (doi:10.1016/j.jct.2005.03.020).

Legend:
[1] = excess molar enthalpy (molar enthalpy of mixing); xn = mol fraction of the nth substance listed; details: 298.15 K, 101.33 kPa, Liquid
[2] = xn = mol fraction of the nth substance listed; details: 298.15 K, 101.33 kPa, Liquid

CCCCC(=O)OCC [ethyl pentanoate] + ClCCCCCl
Details | excess molar enthalpy [kcal/mol] | mass density [kg/m3]
[1], x2 = 0.0443 | -0.00368 | –
[1], x2 = 0.0938 | -0.00985 | –
[1], x2 = 0.1472 | -0.0156 | –
[1], x2 = 0.2021 | -0.0229 | –
[1], x2 = 0.2576 | -0.0317 | –
[1], x2 = 0.3103 | -0.04 | –
[1], x2 = 0.3615 | -0.0492 | –
[1], x2 = 0.4093 | -0.0553 | –
[1], x2 = 0.4542 | -0.0607 | –
[1], x2 = 0.4637 | -0.062 | –
[1], x2 = 0.5038 | -0.0642 | –
[1], x2 = 0.5509 | -0.0653 | –
[1], x2 = 0.6143 | -0.0639 | –
[1], x2 = 0.6866 | -0.0592 | –
[1], x2 = 0.7631 | -0.0504 | –
[1], x2 = 0.8429 | -0.0372 | –
[1], x2 = 0.9262 | -0.0202 | –
[2], x1 = 0.0426 | – | 1118.97
[2], x1 = 0.0881 | – | 1103.57
[2], x1 = 0.1345 | – | 1088.34
[2], x1 = 0.1844 | – | 1072.46
[2], x1 = 0.2407 | – | 1055.13
[2], x1 = 0.2932 | – | 1039.54
[2], x1 = 0.3462 | – | 1024.28
[2], x1 = 0.4021 | – | 1008.72
[2], x1 = 0.4541 | – | 994.67
[2], x1 = 0.5187 | – | 977.83
[2], x1 = 0.5829 | – | 961.7
[2], x1 = 0.6452 | – | 946.59
[2], x1 = 0.7045 | – | 932.66
[2], x1 = 0.7796 | – | 915.67
[2], x1 = 0.8521 | – | 899.89
[2], x1 = 0.925 | – | 884.57

CCCCC(=O)OCC [ethyl pentanoate] + ClCCCl
Details | excess molar enthalpy [kcal/mol] | mass density [kg/m3]
[1], x2 = 0.0371 | -0.00712 | –
[1], x2 = 0.098 | -0.0147 | –
[1], x2 = 0.126 | -0.0245 | –
[1], x2 = 0.1732 | -0.0363 | –
[1], x2 = 0.2196 | -0.0475 | –
[1], x2 = 0.2666 | -0.0614 | –
[1], x2 = 0.3122 | -0.0744 | –
[1], x2 = 0.3542 | -0.0839 | –
[1], x2 = 0.4265 | -0.0924 | –
[1], x2 = 0.4641 | -0.0946 | –
[1], x2 = 0.5103 | -0.0954 | –
[1], x2 = 0.5638 | -0.0959 | –
[1], x2 = 0.626 | -0.0916 | –
[1], x2 = 0.7011 | -0.0817 | –
[1], x2 = 0.7962 | -0.0618 | –
[1], x2 = 0.896 | -0.0363 | –
[2], x1 = 0.0345 | – | 1220.93
[2], x1 = 0.0687 | – | 1198.23
[2], x1 = 0.1042 | – | 1176.06
[2], x1 = 0.1425 | – | 1153.66
[2], x1 = 0.1817 | – | 1132.12
[2], x1 = 0.2273 | – | 1108.84
[2], x1 = 0.2723 | – | 1087.35
[2], x1 = 0.324 | – | 1064.47
[2], x1 = 0.3767 | – | 1042.83
[2], x1 = 0.4332 | – | 1021.3
[2], x1 = 0.4956 | – | 999.37
[2], x1 = 0.5633 | – | 977.31
[2], x1 = 0.6342 | – | 956.13
[2], x1 = 0.7134 | – | 934.52
[2], x1 = 0.7992 | – | 912.89
[2], x1 = 0.894 | – | 893.96

ClCCCCCCl [1,5-dichloropentane] + CCCCC(=O)OCC
Details | excess molar enthalpy [kcal/mol] | mass density [kg/m3]
[1], x2 = 0.0481 | -0.00244 | –
[1], x2 = 0.1066 | -0.00762 | –
[1], x2 = 0.1663 | -0.0128 | –
[1], x2 = 0.228 | -0.0206 | –
[1], x2 = 0.2876 | -0.0279 | –
[1], x2 = 0.3438 | -0.0357 | –
[1], x2 = 0.3973 | -0.0434 | –
[1], x2 = 0.416 | -0.0465 | –
[1], x2 = 0.4433 | -0.0493 | –
[1], x2 = 0.4786 | -0.0512 | –
[1], x2 = 0.5288 | -0.0522 | –
[1], x2 = 0.5848 | -0.0517 | –
[1], x2 = 0.6478 | -0.05 | –
[1], x2 = 0.7165 | -0.0433 | –
[1], x2 = 0.7867 | -0.0365 | –
[1], x2 = 0.8597 | -0.0264 | –
[1], x2 = 0.9325 | -0.0137 | –
[2], x2 = 0.1036 | – | 1068.61
[2], x2 = 0.1561 | – | 1055.46
[2], x2 = 0.2082 | – | 1042.59
[2], x2 = 0.2623 | – | 1029.48
[2], x2 = 0.3179 | – | 1016.24
[2], x2 = 0.3785 | – | 1002.01
[2], x2 = 0.4369 | – | 988.54
[2], x2 = 0.4943 | – | 975.55
[2], x2 = 0.5534 | – | 962.34
[2], x2 = 0.6141 | – | 949.06
[2], x2 = 0.6755 | – | 935.8
[2], x2 = 0.7367 | – | 922.8
[2], x2 = 0.8008 | – | 909.43
[2], x2 = 0.8658 | – | 896.13
[2], x2 = 0.9318 | – | 882.79
